Source: patent US20060286608A1, “Method for screening transglutaminase 2 inhibitor or activator” (priority 2005, published 2006)
Where two headings read alike, the source gives them in different places. Residues, ends and D or L forms follow the SMILES beside them. *: point of attachment. Cbz = O=C(OCc1ccccc1)*; OtBu = CC(C)(C)O*

Columns and labels:
SH-SY5Y/TG cells [1] = tested on: SH-SY5Y/TG cells
I-κBα = experiment: Proteasome inhibitor treatment of SH-SY5Y/TG cells, Western blotting for I-κBα and ubiquitin; conditions: SH-SY5Y/TG cells incubated for 6 hours with proteasome inhibitor; for increased ubiquitinated I-κBα: Western blotting; for level of I-κBα: cytosol
Experimental: The cytosolic fractions were prepared using a nuclear extract kit (Sigma). The samples were separated from 10-20% gradient SDS gels in Tricine buffer (Invitrogen) and then transferred onto a polyvinylidene difluoride membrane (Invitrogen). Western blotting was conducted as established previously. Antibodies to NF-κBp65, I-κBα, phospho-IκB-α (Ser32), I-κB kinaseβ(IKK-β), phospho-IKKα (Ser180)/IKKβ(Ser181), and NF-κB activating kinase were obtained from Cell Signaling Technologies (Beverly, Mass.). Antibodies to NIK, IKKα, and α-topoisomerase I were obtained from Santa Cruz Biotechnology (Santa Cruz, Calif.). […] The blot was then developed by ECL (enhanced chemiluminescence) (Pierce, Milwaukee, Wis.). To determine the purity of extracted cytosolic and nuclear fractions, anti-LDH and anti-α-topoisomerase were used for the cytosolic fraction and the nuclear fraction, respectively.
To examine whether TGase 2 reduces the level of I-κBα via a ubiquitin-proteasome system, SH-SY5Y/TG cells were incubated for 6 hours with proteasome inhibitors, such as MG132, lactacystin, or carbobenzoxy-L-isoleucyl-gamma-t-butyl-L-alanyl-L-leucinal (FIG. 3A). The cytosol was extracted from cells and was carried out Western blotting for I-κBα and ubiquitin. […] If NF-κB expression induced by TGase 2 depends on the IKK/ubiquitin/proteasome pathway, the level of both I-κBα and ubiquitinated I-κBα should be increased.

BV-2 microglia = experiment: Nitric oxide measurement (Griess reaction) in LPS-activated BV-2 microglia; format: cell-based, murine; conditions: BV-2 cells treated with LPS and NMMA (0, 50, 100 μM), 24 hours
Experimental: (§1) The BV-2 cells were grown and maintained in DMEM (Dulvecco's modified Eagle's medium) (Invitrogen) supplemented with 10% FCS (fetal calf serum) and penicillin/streptomycin at 37° C. in a humidified incubator under 5% CO2. To activate BV-2, the cells were treated with LPS (100 μg/ml; Sigma) for 24 hours. After LPS treatment for 24 hours with or without inducible nitric-oxide synthase(iNOS) inhibitor, 0, 50, and 100 μM N^G-monomethyl-L-arginine(L-NMMA) (Sigma), proteins were extracted with radioimmunoprecipitation assay buffer (1× phosphate-buffered saline (PBS), 1% Nonidet P-40, 0.5% sodium deoxycholate and 0.1% SDS) containing protease inhibitors from BV-2 harvest, followed by analysis for TGase 2 activity.
Accumulated nitric oxide was measured in the cell supernatant after LPS treatment for 24 hours by Griess reaction. A 200 μl aliquot of the cell supernatant in each well of a 96-well microtiter plate was mixed with 100 μl of the Griess reagent [1% sulfanilamide (Fluka), 0.1% naphthylethylenediamine dihydrochloride (Fluka), 2.5% H3PO4], and the absorbance was read at 540 nm using a plate reader.

TGase 2 [2] = experiment: TGase activity assay in LPS-activated BV-2 microglia; format: cell-based, murine; conditions: BV-2 cells treated with LPS and NMMA (0, 50, 100 μM), 24 hours
Experimental: as §1
Enzymatic activity was determined using a modified TGase assay method for measuring the incorporation of [1,4-^14C] putrescine into succinylated casein.

TGase 2 [3] = target: T1, TGase 2 (Homo sapiens, UniProt P21980); experiment: Effect of TGase inhibitors on reduced I-κBα in SH-SY5Y/TG cells; format: cell-based; conditions: SH-SY5Y/TG cells incubated for 30 min with TGase inhibitor, Western blotting
T1 construct: carry a pcDNA5/FRT vector containing a full-length human TGase 2 gene; expressed in transfected cells; host or cells: human neuroblastoma SH-SY5Y, Flp-In system, pcDNA5/FRT vector
T1 sequence (P21980 1-687): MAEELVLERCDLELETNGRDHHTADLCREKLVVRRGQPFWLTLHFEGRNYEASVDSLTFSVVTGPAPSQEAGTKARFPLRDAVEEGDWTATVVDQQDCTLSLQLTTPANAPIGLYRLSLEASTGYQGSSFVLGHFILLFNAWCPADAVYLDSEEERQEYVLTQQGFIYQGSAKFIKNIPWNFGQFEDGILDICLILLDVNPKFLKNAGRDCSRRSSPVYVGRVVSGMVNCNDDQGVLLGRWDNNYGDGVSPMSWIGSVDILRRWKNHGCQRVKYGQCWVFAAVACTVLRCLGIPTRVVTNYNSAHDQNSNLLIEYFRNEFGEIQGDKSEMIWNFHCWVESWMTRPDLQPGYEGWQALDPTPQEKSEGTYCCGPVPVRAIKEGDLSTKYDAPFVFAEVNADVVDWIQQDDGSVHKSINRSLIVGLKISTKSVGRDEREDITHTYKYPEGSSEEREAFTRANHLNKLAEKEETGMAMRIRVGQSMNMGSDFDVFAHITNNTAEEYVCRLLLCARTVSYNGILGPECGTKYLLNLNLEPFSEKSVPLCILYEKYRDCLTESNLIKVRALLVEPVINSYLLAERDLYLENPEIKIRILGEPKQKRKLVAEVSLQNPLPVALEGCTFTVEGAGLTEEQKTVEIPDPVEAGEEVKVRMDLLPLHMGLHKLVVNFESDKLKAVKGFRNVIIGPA
From the text: Cystamine is known to inhibit TGase activity by blocking the access of a glutamine residue in substrate proteins to the TGase active site. Iodoacetamide (Sigma) is also known to inhibit TGase activity as a strong competitive irreversible inhibitor. […] E2 (DPVKG: SEQ. ID. NO. 6) and R2 (KVLDGQDP: SEQ. ID. NO. 7) were designed to contain a pro-elafin sequence and a pro-elafin/antiflamnin sequence, respectively, therein. […] In order to examine the effect of TGase inhibitors on the decrease in I-κBα level, the SH-SY5Y/TG culture was treated with different inhibitors for 30 min, followed by the separation of the cytosolic fraction using a nuclear extract kit (Sigma).
The effect of TGase 2 expression on the level of I-κBα was examined in EcR 293 and SH-SY5Y cells. To control TGase 2 expression, a tetracycline-induced expression system was applied to EcR 293 cell line (FIG. 6A). In FIG. 6A, EcR 293 cells were collected before incubation (left), after incubation in a medium containing 1 μg/ml of tetracycline for 24 hours (center), and after incubation in a medium containing 1 μg/ml of tetracycline for 24 hours and then in a fresh medium containing no tetracycline for an additional 24 hours (right). […] To examine whether TGase 2 inhibitors can result in the same effect, SH-SY5Y/TG cells were incubated for 30 min with a TGase inhibitor, such as cystamine, idoacetamide, E2 peptide, or R2 peptide.

SH-SY5Y/TG cells [4] = experiment: LDH activity in medium and caspase-9 expression in proteasome inhibitor-treated SH-SY5Y/TG cells; conditions: SH-SY5Y/TG cells incubated for 6 hours with proteasome inhibitor
[5] = target: full-length human NF-κB (p65) (human) (UniProt Q04206); experiment: densitometry of co-immunoprecipitation / Western blot
full-length human NF-κB (p65) (human), sequence (Q04206 whole entry): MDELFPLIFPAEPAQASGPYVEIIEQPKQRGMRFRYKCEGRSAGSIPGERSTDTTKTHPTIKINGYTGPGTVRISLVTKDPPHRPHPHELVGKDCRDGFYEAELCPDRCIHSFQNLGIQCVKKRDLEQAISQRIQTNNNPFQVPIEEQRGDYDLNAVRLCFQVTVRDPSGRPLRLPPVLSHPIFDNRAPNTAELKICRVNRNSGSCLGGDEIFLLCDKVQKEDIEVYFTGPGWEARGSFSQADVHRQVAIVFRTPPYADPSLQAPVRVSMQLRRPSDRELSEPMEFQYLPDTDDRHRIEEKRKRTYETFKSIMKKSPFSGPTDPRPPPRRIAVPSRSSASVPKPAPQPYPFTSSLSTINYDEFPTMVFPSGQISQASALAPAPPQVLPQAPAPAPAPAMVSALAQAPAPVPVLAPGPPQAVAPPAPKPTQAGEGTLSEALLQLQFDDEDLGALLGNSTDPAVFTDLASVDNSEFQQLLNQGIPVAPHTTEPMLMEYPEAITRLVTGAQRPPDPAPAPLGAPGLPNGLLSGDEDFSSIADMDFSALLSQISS

[6] = target: T2, full-length human I-κBα (free form), P25963
T2 chain: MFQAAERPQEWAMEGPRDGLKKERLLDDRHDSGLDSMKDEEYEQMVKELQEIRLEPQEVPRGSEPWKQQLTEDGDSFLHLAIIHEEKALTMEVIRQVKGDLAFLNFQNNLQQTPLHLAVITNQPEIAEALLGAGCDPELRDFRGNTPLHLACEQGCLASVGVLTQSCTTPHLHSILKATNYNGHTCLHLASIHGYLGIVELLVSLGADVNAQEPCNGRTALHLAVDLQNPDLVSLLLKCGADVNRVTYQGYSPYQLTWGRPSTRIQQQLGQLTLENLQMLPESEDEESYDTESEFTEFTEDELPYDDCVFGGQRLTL

[7] = target: T3, human recombinant NF-κB(p52) protein, Q00653
T3 chain: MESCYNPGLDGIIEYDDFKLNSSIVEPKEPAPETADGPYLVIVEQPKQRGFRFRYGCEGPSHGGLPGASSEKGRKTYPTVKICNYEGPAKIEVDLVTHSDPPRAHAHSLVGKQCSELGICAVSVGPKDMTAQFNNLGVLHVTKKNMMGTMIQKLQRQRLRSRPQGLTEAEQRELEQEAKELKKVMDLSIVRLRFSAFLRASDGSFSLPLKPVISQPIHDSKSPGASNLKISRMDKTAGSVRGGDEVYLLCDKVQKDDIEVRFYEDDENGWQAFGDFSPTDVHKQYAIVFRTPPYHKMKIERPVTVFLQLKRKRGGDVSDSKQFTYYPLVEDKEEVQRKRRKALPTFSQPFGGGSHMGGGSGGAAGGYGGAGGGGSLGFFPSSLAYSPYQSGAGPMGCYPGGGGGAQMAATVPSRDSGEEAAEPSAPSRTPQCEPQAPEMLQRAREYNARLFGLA

CC(C)C[C@@H](C=O)NC(=O)[C@H](CC(C)C)NC(=O)[C@H](CC(C)C)NC(=O)OCc1ccccc1 [MG132] (Cbz-Leu-Leu-Leu-aldehyde)
LDH activity in the medium (SH-SY5Y/TG cells [1]): not detected | caspase-9 expression by Western blotting (SH-SY5Y/TG cells [1]): not detected | increased ubiquitinated I-κBα (I-κBα): not detected | level of I-κBα (I-κBα): increased

CNC(=N)NCCC[C@H](N)C(=O)O [NMMA, N^G-monomethyl-L-arginine]
NO secretion (BV-2 microglia): reduced NO secretion in a dose-dependent manner | TGase activity (TGase 2 [2]): did not affect

CC[C@H](C)[C@H](NC(=O)OCc1ccccc1)C(=O)N[C@@H](CCC(=O)OC(C)(C)C)C(=O)N[C@@H](C)C(=O)N[C@H](C=O)CC(C)C [carbobenzoxy-L-isoleucyl-gamma-t-butyl-L-alanyl-L-leucinal] (Cbz-IE(OtBu)AL-aldehyde)
LDH activity in the medium (SH-SY5Y/TG cells [1]): not detected | caspase-9 expression by Western blotting (SH-SY5Y/TG cells [1]): not detected | increased ubiquitinated I-κBα (I-κBα): not detected | level of I-κBα (I-κBα): increased

NCCSSCCN [cystamine, Cystamine]
cytosolic I-κBα level (TGase 2 [3]): reduce the cytosolic I-κBα level almost to the control level

NC(=O)CI [idoacetamide, Iodoacetamide]
cytosolic I-κBα level (TGase 2 [3]): reduce the cytosolic I-κBα level almost to the control level

CC(=O)N[C@@H](CSC(=O)[C@]1([C@@H](O)C(C)C)NC(=O)[C@H](C)[C@@H]1O)C(=O)O [lactacystin]
LDH activity in the medium (SH-SY5Y/TG cells [4]): not detected | caspase-9 expression by Western blotting (SH-SY5Y/TG cells [4]): not detected | increased ubiquitinated I-κBα (I-κBα): not detected | level of I-κBα (I-κBα): increased

DPVKG (pro-elafin sequence) [E2 peptide]
cytosolic I-κBα level (TGase 2 [3]): reduce the cytosolic I-κBα level almost to the control level

KVLDGQDP (pro-elafin/antiflammin sequence) [R2 peptide]
cytosolic I-κBα level (TGase 2 [3]): reduce the cytosolic I-κBα level almost to the control level

polymerized I-κBα (full-length human I-κBα cross-linked by TGase 2) (from UniProt P25963 1-317)
loss of binding efficiency relative to free I-κBα [5]: > 90%

B1: guinea pig liver TGase 2 (protein)
chain: AEDLILERCDLQLEVNGRDHRTADLCRERLVLRRGQPFWLTLHFEGRGYEAGVDTLTFNAVTGPDPSEEAGTMARFSLSSAVEGGTWSASAVDQQDSTVSLLLSTPADAPIGLYRLSLEASTGYQGSSFVLGHFILLYNPRCPADAVYMDSDQERQEYVLTQQGFIYQGSAKFINGIPWNFGQFEDGILDICLMLLDTNPKFLKNAGQDCSRRSRPVYVGRVVSAMVNCNDDQGVLQGRWDNNYSDGVSPMSWIGSVDILRRWKDYGCQRVKYGQCWVFAAVACTVLRCLGIPTRVVTNFNSAHDQNSNLLIEYFRNESGEIEGNKSEMIWNFHCWVESWMTRPDLEPGYEGWQALDPTPQEKSEGTYCCGPVPVRAIKEGHLNVKYDAPFVFAEVNADVVNWIRQKDGSLRKSINHLVVGLKISTKSVGRDEREDITHTYKYPEGSEEEREAFVRANHLNKLATKEEAQEETGVAMRIRVGQNMTMGSDFDIFAYITNGTAESHECQLLLCARIVSYNGVLGPVCSTNDLLNLTLDPFSENSIPLHILYEKYGDYLTESNLIKVRGLLIEPAANSYVLAERDIYLENPEIKIRVLGEPKQNRKLIAEVSLKNPLPVPLLGCIFTVEGAGLTKDQKSVEVPDPVEAGEQAKVRVDLLPTEVGLHKLVVNFECDKLKAVKGYRNVIIGPA
polymerization of I-κBα (in vitro cross-linking, Western blotting) [6]: resulted in completely polymerized I-κBα | polymerization of NF-κB(p52) (in vitro cross-linking, Coomassie staining) [7]: The same polymerization was not observed
